Experimental data taken from US20220008392A1, “METHODS OF TREATING CANCER” (ASTRAZENECA AB, priority 2018, published 2022).

Legend:
[1] = test system: pSer2-RNAP2; experiment: Western blot of proximal CDK9 biomarker in OCILY10 cells treated with AZD4573; assay type: cell-based
Procedure: (§1) Method: The ABC-DLBCL cell line OCILY10 was treated for 6 h with a 9 pt, ½ log dose response of AZD4573 and cells were harvested for protein lysates. These cells were also treated with AZD4573 at 100 nM for varying timepoints out to 6 hours. At each timepoint (0, 0.5, 1, 2, 4, 6 hours) cells were harvested for either mRNA isolation, or protein lysates, respectively. mRNA was converted to cDNA and PCR sequence amplification was performed with Mcl1 and Bcl2a1 primers following standard protocols. Protein lysates were normalized for protein concentration using the BCA Protein Assay Kit, and run for western blots according to standard protocols. To ensure expected target engagement was achieved, the blots were probed for the proximal biomarker for CDK9 (pSer2-RNAPolII), along with Mcl-1 and Bfl-1. To gauge the time to induction of apoptosis, cleaved caspase-3 was assessed. A loading control (vinculin) was also utilized for normalization.

[2] = test system: Mcl-1 and Bfl-1; experiment: Mcl-1 and Bfl-1 mRNA (PCR) and Bcl2 family protein (western blot) modulation in OCILY10 cells; assay type: cell-based
Procedure: as §1

[3] = test system: TMD8 xenograft; experiment: TMD8 ABC-DLBCL xenograft efficacy; assay type: in vivo, C.B.-17 SCID female mice
Procedure: (§2) Method: AZD4573 was formulated in dimethylacetamide (DMA)/polyethylene glycol 400 (PEG 400)/1% w/v Tween 80 solution 2/30/68 and dosed at 15 mg/kg, intraperitoneally (ip), BID with a 2 hour split on days 1 and 2 with a 5 day dose holiday.
(§3) AZD5991 was formulated for intravenous use in 30% HPBCD (hydroxy-propyl-beta-cyclodextrin) in water-for-injection adjusted to pH 9.0-9.5 up to a concentration of 20 mg/mL (based on parent form). AZD5991 was dosed at 60 mg/kg by tail-vain intravenous injection once weekly.
(§4) 5×10^6 OCILy10 tumor cells or 10×10^6 TMD8 tumor cells were injected subcutaneously in the right flank of C.B.-17 SCID female mice in a volume of 0.1 mL containing 50% matrigel.
(§5) Tumor volumes (measured by caliper), animal body weight, and tumor condition were recorded twice weekly for the duration of the studies. The tumor volume was calculated using the formula: length (mm)×width (mm)^2×0.52. For efficacy studies, growth inhibition from the start of treatment was assessed by comparison of the differences in tumor volume between control and treated groups. Dosing began when mean tumor size reached approximately 150-180 mm^3. CR=complete response.

[4] = test system: lymphoma cell lines; experiment: 6-hour caspase activation assay (Caspase-Glo 3/7) in 33 lymphoma cell line panel; assay type: cell-based; conditions: for Emax: 6 hour compound incubation, cell lines highlighted in FIG. 1B, read-out: caspase maximum effect
Procedure: Method: 33 diffuse large B-cell (DLBCL) and Mantle cell (MCL) lymphoma cell lines were seeded onto 384 well plates pre-dosed with 10-point, ½ log titrations of AZD4573 or AZD5991, and incubated for 6 hours. Following the incubation cleaved caspase was measured using Caspase-Glo 3/7 (Promega) following the manufacturer's protocol. Data was analyzed using GeneData Screener and Spotfire.
Method: Cell lysates from 33 lymphoma cell lines were generated in parallel to evaluate protein expression of pro-survival Bcl2 family members. Cell lysates were normalized for protein concentration using the BCA Protein Assay Kit, and western blots were run according to standard protocols. A positive cell line control for expression of Bfl-1, TMD8, was utilized for normalization to other cell lines in the panel. AZD4573 and AZD5991 respective median and geomean caspase EC50's were calculated from cell lines clustered based on high and low Bfl-1 expression, respectively.

[5] = test system: OCILY10 xenograft; experiment: OCILY10 ABC-DLBCL xenograft efficacy; assay type: in vivo, C.B.-17 SCID female mice
Procedure: as §2, §3, §4, §5

[6] = test system: OCILY10 cells; experiment: Cleaved caspase-3 induction over time in OCILY10 cells; assay type: cell-based; conditions: 100 nM AZD4573
Procedure: as §1

[7] = test system: OCILY10 and TMD8 cell lines; experiment: Caspase-Glo 3/7 activation after Bfl-1 siRNA knockdown; assay type: cell-based; conditions: 6 hours
Procedure: Method: OCILY10 and TMD8 cells were grown in logarithmic phase and plated in serum-free siRNA delivery media at 1×10^6 cells/mL in 12-well plates (Dharmacon B-005000). An siRNA SMARTpool targeting Bfl-1 or a scrambled negative control (NTC) were added to respective wells for 24 hours at 0.1 or 0.5 μM (Dharmacon Bcl2a1-597, NTC-D-001910-01). 2 mL of cell culture media was added to all transfected wells and transferred into a 6-well plate for an additional 48 hours. Transfected cells were collected to assess Bfl-1 protein knockdown and cleaved caspase-3 by western blot. Transfected cells were also seeded onto 384 well plates pre-dosed with an 8-point titration of AZD4573 or AZD5991 and incubated for 6 hours. The plates were measured for activation of cleaved caspase using Caspase-Glo 3/7 (Promega) following the manufacturer's protocol.

[8] = 15 mg/kg ip BID with 2 hour split on days 1 and 2, 5 day dose holiday

geometric mean caspase EC50 difference between AZD5991 and AZD4573 ([4]; Bfl-1 expressing cell lines (n=8)) [fold] | geometric mean caspase EC50 difference between AZD5991 and AZD4573 ([4]; cell lines with no expression of Bfl-1 (n=25)) [fold] | Structure (SMILES) | Expression of pSer2-RNAP2 inhibited ([1]; 100 nM AZD4573, 30 minutes after dosing) [%] | pSer2-RNAP2 inhibition ([1]; 6 h, serial dilutions of AZD4573) | time by which Mcl1 and Bfl1 mRNA expression were reduced to equivalent levels ([2]; 100 nM AZD4573) [h] | time of reductions in Mcl-1 and Bfl-1 protein ([2]; 100 nM AZD4573) [h] | expression of longer lived proteins Bcl2, Bcl-xL and Bcl-W ([2]; after 6 h treatment with AZD4573) | reductions in Mcl-1 and Bfl-1 protein ([2]; at concentrations that inhibited pSer2-RNAP2) | TGI [3, 8] [%] | anti-tumor response ([3]; TMD8 xenograft, AZD4573 treatment) | Emax [4] [%] | TGI [5, 8] [%] | anti-tumor response ([5]; OCILY10 xenograft, AZD4573 treatment) | time at which cleaved caspase was detected [6] [h] | maximum level of apoptosis (cleaved caspase) ([7]; OCILY10 and TMD8, Bfl-1 siRNA knockdown cells) | maximum level of apoptosis (cleaved caspase) ([7]; average of OCILY10 and TMD8, without Bfl-1 knockdown) [%]
22 | 4 | CC(=O)N[C@@H]1CCC[C@H](C(=O)Nc2cc(-c3cnn4c3CC(C)(C)C4)c(Cl)cn2)C1 [AZD4573, (1S,3R)-3-acetamido-N-(5-chloro-4-(5,5-dimethyl-5,6-dihydro-4H-pyrrolo [1,2-b]pyrazol-3-yl)pyridin-2-yl)cyclohexanecarboxamide] | > 80 | inhibited in a dose-dependent manner | ≤ 2 | 4 | relatively unchanged | Equipotent reductions | 184 | complete tumor regressions | > 50 | 198 | complete tumor regressions | 6 | – | –
– | – | Cc1c2c(nn1C)CSCc1cc(n(C)n1)CSc1cc(c3ccccc3c1)OCCCc1c(C(=O)O)n(C)c3c-2c(Cl)ccc13 (atropisomer, axis not shown) [AZD5991] | – | – | – | – | – | – | – | – | < 50 | – | – | – | over 90% | 45
